Reference: patent US12365687B2 (Hoffmann-La Roche Inc., priority 2021, dated 2025)

Legend:
[1] = molecular target: human GABAA α5β2γ1 receptor (Homo sapiens (Human), UniProt P31644+Q8N1C3); experiment: Radioligand binding assay for γ1-containing GABAA subtypes, [3H]RO7239181 competition (α5β2γ1)
[2] = molecular target: human GABAA α2β2γ1 receptor (Homo sapiens (Human), UniProt P47869+Q8N1C3); experiment: Radioligand binding assay for γ1-containing GABAA subtypes, [3H]RO7239181 competition (α2β2γ1)
[3] = molecular target: human GABAA α1β3γ2 receptor (Homo sapiens (Human), UniProt P14867+P18507); experiment: Radioligand binding assay for γ2-containing GABAA subtypes, [3H]Flumazenil competition (α1β3γ2); details: for γ2/γ1 Selectivity Ratio: Ki α1β3γ2 (nM)/Ki α2β2γ1 (nM); for LogSel: Log[Ki α1β3γ2 (nM)/Ki α2β2γ1 (nM)]
[4] = molecular target: α2β2γ1 GABAA receptor subtype (Homo sapiens (Human), UniProt P47869+Q8N1C3); experiment: Two-electrode voltage clamp electrophysiology in Xenopus oocytes expressing GABAA receptors (modulation of GABA EC20 current); format: cell-based; details: for Efficacy (GABA)%: % modulation of GABA EC20 = 100*(Fold increase-1), α2β2γ1 oocytes, compound at approx. 30-fold Ki; for Fold increase h-GABA-A α2β2γ1 oocyte @ 30-fold Ki: Xenopus oocytes expressing α2β2γ1, compound at approx. 30-fold its Ki α2β2γ1, GABA EC20 current
Outline: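 Each concentration was tested on ≥3 oocytes held at −80 mV at room temperature, recorded 3-5 days post-injection. A control and a test response to EC20 GABA (1.5 min each) were superimposed and their point-by-point ratio taken. Peak ratio reported as % modulation of GABA EC20 = 100×(fold increase−1).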

[5] = Ki h-GABAA α2β2γ1, [3H]RO7239181 competition binding, human GABAA α2β2γ1
[6] = Ki h-GABAA α2β2γ1, displacement of [3H]RO7239181, membranes of HEK293F cells expressing human receptors, means of two determinations

For `C[C@@H]1N=C(c2c(F)cccc2F)c2c(ccc(Cl)c2Cl)-n2nc(C(=O)N3CC[C@@H](F)C3)nc21` [Example 76, [(4S)-7,8-dichloro-6-(2,6-difluorophenyl)-4-methyl-4H-[1,2,4]triazolo[1,5-a][1,4]benzodiazepin-2-yl]-[(3R)-3-fluoropyrrolidin-1-yl]methanone], the Ki [1] was 1.64 nM, the Ki [2, 5] was 6.1 nM and the Ki [2, 6] was 6.1 nM. The Ki [3] was 968 nM, the “γ2/γ1 Selectivity Ratio” value [3] was 157.7 and the LogSel [3] was 2.20. For the same compound, the “Efficacy (GABA)%” value [4] was 52% and the “Fold increase h-GABA-A α2β2γ1 oocyte @ 30-fold Ki” value [4] was 1.52.
Compound `C[C@@H]1N=C(c2c(F)cccc2F)c2c(ccc(C(F)(F)F)c2Cl)-n2nc(NC(=O)N3C4COCC3C4)nc21` (single isomer, unassigned) [Example 130] has a Ki [1] of 6.9 nM, a Ki [2, 5] of 36.6 nM and a Ki [2, 6] of 36.6 nM. For the same compound, the Ki [3] was 4190 nM, the “γ2/γ1 Selectivity Ratio” value [3] was 114.5 and the LogSel [3] was 2.06. For the same compound, the “Efficacy (GABA)%” value [4] was 116% and the “Fold increase h-GABA-A α2β2γ1 oocyte @ 30-fold Ki” value [4] was 2.16.
`[2H]C([2H])([2H])NC(=O)c1nc2n(n1)-c1ccc(C(F)(F)F)c(Cl)c1C(c1c(F)cccc1F)=N[C@H]2C` [Example 34, (4S)-7-chloro-6-(2,6-difluorophenyl)-4-methyl-N-(trideuteriomethyl)-8-(trifluoromethyl)-4H-[1,2,4]triazolo[1,5-a][1,4]benzodiazepine-2-carboxamide] was tested, and the Ki [1] was 2.11 nM, the Ki [2, 5] was 14.3 nM and the Ki [2, 6] was 14.3 nM. For the same compound, the Ki [3] was 2180 nM, the “γ2/γ1 Selectivity Ratio” value [3] was 152.4 and the LogSel [3] was 2.18. The “Efficacy (GABA)%” value [4] was 71% and the “Fold increase h-GABA-A α2β2γ1 oocyte @ 30-fold Ki” value [4] was 1.71.
Compound `C[C@@H]1N=C(c2c(F)cccc2F)c2c(ccc(C(F)(F)F)c2Cl)-n2nc(C(=O)NN3CCCC3)nc21` [Example 118, (4S)-7-chloro-6-(2,6-difluorophenyl)-4-methyl-N-pyrrolidin-1-yl-8-(trifluoromethyl)-4H-[1,2,4]triazolo[1,5-a][1,4]benzodiazepine-2-carboxamide] has a Ki [1] of 4.18 nM, a Ki [2, 5] of 24.4 nM and a Ki [2, 6] of 24.4 nM. The Ki [3] was 4450 nM, the “γ2/γ1 Selectivity Ratio” value [3] was 182.7 and the LogSel [3] was 2.26. For the same compound, the “Efficacy (GABA)%” value [4] was 120% and the “Fold increase h-GABA-A α2β2γ1 oocyte @ 30-fold Ki” value [4] was 2.20.
`Cc1cn2c(n1)[C@H](C)N=C(c1ncccc1F)c1c-2ccc(C(F)(F)F)c1Cl` [Example 139, (4S)-7-chloro-6-(3-fluoro-2-pyridyl)-2,4-dimethyl-8-(trifluoromethyl)-4H-imidazo[1,2-a][1,4]benzodiazepine] gave a Ki [1] of 5.54 nM, a Ki [2, 5] of 30.8 nM and a Ki [2, 6] of 30.8 nM. The Ki [3] was 3060 nM, the “γ2/γ1 Selectivity Ratio” value [3] was 99.6 and the LogSel [3] was 2.00. For the same compound, the “Efficacy (GABA)%” value [4] was 149% and the “Fold increase h-GABA-A α2β2γ1 oocyte @ 30-fold Ki” value [4] was 2.49.
Work on `C[C@@H]1N=C(c2ncccc2F)c2c(ccc(Cl)c2Cl)-n2nc(C(=O)N3CCC3)nc21` [Example 42, azetidin-1-yl-[(4S)-7,8-dichloro-6-(3-fluoro-2-pyridyl)-4-methyl-4H-[1,2,4]triazolo[1,5-a][1,4]benzodiazepin-2-yl]methanone] yielded a Ki [1] of 4.24 nM, a Ki [2, 5] of 50.1 nM and a Ki [2, 6] of 50.1 nM. For the same compound, the Ki [3] was 2630 nM, the “γ2/γ1 Selectivity Ratio” value [3] was 52.5 and the LogSel [3] was 1.72. For the same compound, the “Efficacy (GABA)%” value [4] was 114% and the “Fold increase h-GABA-A α2β2γ1 oocyte @ 30-fold Ki” value [4] was 2.14.
Work on `C[C@@H]1N=C(c2ncccc2F)c2c(ccc(C(F)(F)F)c2Cl)-n2nc(C(=O)N3CC4(CCOC4)C3)nc21` [Example 120, 6-oxa-2-azaspiro[3.4]octan-2-yl-[(4S)-7-chloro-6-(3-fluoro-2-pyridyl)-4-methyl-8-(trifluoromethyl)-4H-[1,2,4]triazolo[1,5-a][1,4]benzodiazepin-2-yl]methanone] yielded a Ki [1] of 8.55 nM, a Ki [2, 5] of 80.4 nM and a Ki [2, 6] of 80.4 nM. For the same compound, the Ki [3] was 5330 nM, the “γ2/γ1 Selectivity Ratio” value [3] was 66.3 and the LogSel [3] was 1.82. The “Efficacy (GABA)%” value [4] was 178% and the “Fold increase h-GABA-A α2β2γ1 oocyte @ 30-fold Ki” value [4] was 2.78.
`C[C@@H]1N=C(c2c(F)cccc2F)c2c(ccc(Cl)c2Cl)-n2nc(C(=O)N3CC(CF)C3)nc21` [Example 72, [3-(fluoromethyl)azetidin-1-yl]-[(4S)-7,8-dichloro-6-(2,6-difluorophenyl)-4-methyl-4H-[1,2,4]triazolo[1,5-a][1,4]benzodiazepin-2-yl]methanone] gave a Ki [1] of 1.1 nM, a Ki [2, 5] of 7.2 nM and a Ki [2, 6] of 7.2 nM. For the same compound, the Ki [3] was 727 nM, the “γ2/γ1 Selectivity Ratio” value [3] was 100.6 and the LogSel [3] was 2.00. For the same compound, the “Efficacy (GABA)%” value [4] was 44% and the “Fold increase h-GABA-A α2β2γ1 oocyte @ 30-fold Ki” value [4] was 1.44.
`CCOC1CN(C(=O)c2cn3c(n2)[C@H](C)N=C(c2ncccc2F)c2c-3ccc(C(F)(F)F)c2Cl)C1` [Example 158, (3-ethoxyazetidin-1-yl)-[(4S)-7-chloro-6-(3-fluoro-2-pyridyl)-4-methyl-8-(trifluoromethyl)-4H-imidazo[1,2-a][1,4]benzodiazepin-2-yl]methanone] showed a Ki [1] of 21.7 nM, a Ki [2, 5] of 94.6 nM and a Ki [2, 6] of 94.1 nM. The Ki [3] was over 30000 nM, the “γ2/γ1 Selectivity Ratio” value [3] was 318.9 and the LogSel [3] was 2.50. For the same compound, the “Efficacy (GABA)%” value [4] was 144% and the “Fold increase h-GABA-A α2β2γ1 oocyte @ 30-fold Ki” value [4] was 2.44.
`C[C@@H]1N=C(c2c(F)cccc2F)c2c(ccc(Cl)c2Cl)-n2nc(C(=O)NC[C@@H](C)O)nc21` [Example 65, (4S)-7,8-dichloro-6-(2,6-difluorophenyl)-4-methyl-N-[(2R)-2-hydroxypropyl]-4H-[1,2,4]triazolo[1,5-a][1,4]benzodiazepine-2-carboxamide] showed a Ki [1] of 0.5 nM, a Ki [2, 5] of 5.8 nM and a Ki [2, 6] of 5.8 nM. For the same compound, the Ki [3] was 492 nM, the “γ2/γ1 Selectivity Ratio” value [3] was 84.8 and the LogSel [3] was 1.93. The “Efficacy (GABA)%” value [4] was 80% and the “Fold increase h-GABA-A α2β2γ1 oocyte @ 30-fold Ki” value [4] was 1.80.
For `C[C@@H]1N=C(c2ncccc2F)c2c(ccc(Br)c2Cl)-n2nc(C(=O)N3CCC3)nc21` [Example 48, azetidin-1-yl-[(4S)-8-bromo-7-chloro-6-(3-fluoro-2-pyridyl)-4-methyl-4H-[1,2,4]triazolo[1,5-a][1,4]benzodiazepin-2-yl]methanone], the Ki [1] was 3.22 nM, the Ki [2, 5] was 18.6 nM and the Ki [2, 6] was 18.6 nM. The Ki [3] was 1310 nM, the “γ2/γ1 Selectivity Ratio” value [3] was 70.2 and the LogSel [3] was 1.85. The “Efficacy (GABA)%” value [4] was 94% and the “Fold increase h-GABA-A α2β2γ1 oocyte @ 30-fold Ki” value [4] was 1.94.
Compound `C[C@@H]1N=C(c2ncccc2F)c2c(ccc(Cl)c2Cl)-n2nc(C(=O)N3CC4(CCO4)C3)nc21` [Example 98, [(4S)-7,8-dichloro-6-(3-fluoro-2-pyridyl)-4-methyl-4H-[1,2,4]triazolo[1,5-a][1,4]benzodiazepin-2-yl]-(1-oxa-6-azaspiro[3.3]heptan-6-yl)methanone] has a Ki [1] of 29.8 nM, a Ki [2, 5] of 81.7 nM and a Ki [2, 6] of 81.8 nM. The Ki [3] was 8110 nM, the “γ2/γ1 Selectivity Ratio” value [3] was 99.2 and the LogSel [3] was 2.00. For the same compound, the “Efficacy (GABA)%” value [4] was 158% and the “Fold increase h-GABA-A α2β2γ1 oocyte @ 30-fold Ki” value [4] was 2.58.
For `COC1CN(C(=O)c2nc3n(n2)-c2ccc(C(F)(F)F)c(Cl)c2C(c2c(F)cccc2F)=NC3)C1` [Example 37, [7-chloro-6-(2,6-difluorophenyl)-8-(trifluoromethyl)-4H-[1,2,4]triazolo[1,5-a][1,4]benzodiazepin-2-yl]-(3-methoxyazetidin-1-yl)methanone], the Ki [1] was 1.8 nM, the Ki [2, 5] was 4.5 nM and the Ki [2, 6] was 4.49 nM. For the same compound, the Ki [3] was 772 nM, the “γ2/γ1 Selectivity Ratio” value [3] was 171.8 and the LogSel [3] was 2.24. The “Efficacy (GABA)%” value [4] was 47% and the “Fold increase h-GABA-A α2β2γ1 oocyte @ 30-fold Ki” value [4] was 1.47.
Compound `CO[C@H]1CCN(C(=O)c2nc3n(n2)-c2ccc(Cl)c(Cl)c2C(c2c(F)cccc2F)=N[C@H]3C)C1` [Example 45, [(4S)-7,8-dichloro-6-(2,6-difluorophenyl)-4-methyl-4H-[1,2,4]triazolo[1,5-a][1,4]benzodiazepin-2-yl]-[(3S)-3-methoxypyrrolidin-1-yl]methanone] has a Ki [1] of 2.2 nM, a Ki [2, 5] of 5.4 nM and a Ki [2, 6] of 5.39 nM. For the same compound, the Ki [3] was 1350 nM, the “γ2/γ1 Selectivity Ratio” value [3] was 250.3 and the LogSel [3] was 2.40. The “Efficacy (GABA)%” value [4] was 41% and the “Fold increase h-GABA-A α2β2γ1 oocyte @ 30-fold Ki” value [4] was 1.41.
`C[C@@H]1N=C(c2c(F)cccc2F)c2c(ccc(Cl)c2Cl)-n2nc(C#N)nc21` [Example 53, (4S)-7,8-dichloro-6-(2,6-difluorophenyl)-4-methyl-4H-[1,2,4]triazolo[1,5-a][1,4]benzodiazepine-2-carbonitrile] gave a Ki [1] of 1.65 nM, a Ki [2, 5] of 61.4 nM and a Ki [2, 6] of 61.4 nM. The Ki [3] was 2550 nM, the “γ2/γ1 Selectivity Ratio” value [3] was 41.5 and the LogSel [3] was 1.62. The “Efficacy (GABA)%” value [4] was 73% and the “Fold increase h-GABA-A α2β2γ1 oocyte @ 30-fold Ki” value [4] was 1.73.
Work on `[2H]C([2H])([2H])OC1CN(C(=O)c2nc3n(n2)-c2ccc(C(F)(F)F)c(Cl)c2C(c2ncccc2F)=N[C@H]3C)C1` [Example 104, [(4S)-7-chloro-6-(3-fluor-2-pyridyl)-4-methyl-8-(trifluoromethyl)-4H-[1,2,4]triazolo[1,5-a][1,4]benzodiazepin-2-yl]-[3-(trideuteriomethoxy)azetidin-1-yl]methanone] yielded a Ki [1] of 6.36 nM, a Ki [2, 5] of 37.3 nM and a Ki [2, 6] of 37.3 nM. For the same compound, the Ki [3] was 6300 nM, the “γ2/γ1 Selectivity Ratio” value [3] was 168.8 and the LogSel [3] was 2.23. The “Efficacy (GABA)%” value [4] was 117% and the “Fold increase h-GABA-A α2β2γ1 oocyte @ 30-fold Ki” value [4] was 2.17.
